Results on 15 compounds are retold here after patent US10487081B2, “Guanidine substituted imidazo[4,5-c] ring compounds” (3M INNOVATIVE PROPERTIES COMPANY, priority 2015, dated 2019).

Data set [1] deals with Human peripheral blood mononuclear cells (PBMC). In words: Cytokine Induction in Human Cells. The class given is cell-based. The settings on record: 21-24 hrs culture, lowest concentration giving at least 2x negative control, tested 0.0001-10 micromolar. The method, then: Cytokine Induction in Human Cells
Whole blood was obtained from healthy human donors and collected by venipuncture into vacutainer tubes or syringes containing EDTA. Human peripheral blood mononuclear cells (PBMC) were purified from the whole blood by density gradient centrifugation. Histopaque 1077 (15 mL, Sigma, St. Louis, Mo.) was transferred to 6×50 mL sterile polypropylene conical tubes. The Histopaque was overlayed with 15-25 mL of blood diluted 1:2 in Hank's Balanced Salts Solution (HBSS) (Gibco, Life Technology, Grand Island N.Y.). The tubes were then centrifuged at 1370 rpm for 30 minutes at 20° C., with no brake (400×g, GH 3.8A Rotor).
The interface (buffy coat) containing the PBMC was collected and placed in a new sterile 50 mL conical polypropylene centrifuge tube. The PBMC were mixed with an equal volume of HBSS (about 20 mL from the interface and about 20 mL of HBSS), and then centrifuged at 1090 rpm, 10 min, 20° C., with brake (270×g, GH 3.8A Rotor). After completing centrifugation, the cells were resuspended in 2-3 mL ACK Red blood cell lysis buffer (ammonium chloride potassium solution, Gibco, Life Technology) and incubated for 2-5 minutes at 20° C. Next, HBSS (40 mL) was added to the cells, and the sample was centrifuged at 270×g for 10 min at 20° C. The supernatant was decanted, and the cell pellet was resuspended in 5 mL AIM V® Medium (Gibco, Life Technology). Cell aggregates and debris were removed by filtering the cell solution through a BD Falcon 70 micron nylon cell strainer (BD Biosciences, San Jose, Calif.).
The number of viable cells were determined by counting with a Miltenyi FACS instrument (Miltenyi Biotec Inc., San Diego, Calif.) or by using a hemacytometer. For determining cell viability with a hemacytometer, the cells were diluted 1/10 in 0.4% trypan blue and HBSS (specifically, 50 microliter of trypan blue+40 microliter of HBSS+10 microliter of cell solution were added to a microfuge tube and mixed). Ten microliters of the diluted cells were then applied to the hemacytometer, and the number of viable PBMC were determined by microscopy.
The PBMC sample was then resuspended in 96-well plates at a concentration of 8×10^5 cells/well in 0.1 mL of AIM-V medium. Each compound was solubilized in DMSO to create a 3 mM stock solution. The stock solution was then further diluted with AIM-V medium to prepare the serial dilutions. The diluted compound (100 microliters) was then transferred to the PBMCs to achieve final compound concentrations of 10, 1, 0.1, 0.01, 0.001, 0.0001 micromolar. The plates also had both positive and negative controls. The negative control wells contained only AIM-V medium with no example compound. The positive control wells contained imiquimod serially diluted to concentrations of 10, 1, 0.1, 0.01, 0.001, 0.0001 micromolar. The plates were then cultured at 37° C./5% CO2 for 21-24 hrs. Cell-free supernatants were harvested by centrifuging the 96-well plates at 2100 rpm, 23° C. for 10 minutes. Approximately 160 microliter of the supernatant was then stored in a NUNC 96-well plate, covered with the compression cap and stored at −80° C. until the cytokine analysis was done.
IFN-alpha cytokine levels (pg/mL) were measured by ELISA (human IFN-α, pan specific, Mabtech, Cincinnati, Ohio), IFN-gamma, TNF-alpha, and IP-10 cytokine levels (pg/mL) were measured by multiplex bead assay (magnetic beads, R & D Systems Minneapolis, Minn.) according to the manufacturer's instructions.
Specifically, the minimum effective concentration of each compound (micromolar) was determined as the lowest concentration of the compound that induced a measured cytokine response at a level ([…]) that was at least 2× greater than that observed with the negative control wells.

[2] abbreviates: ELISA, read-out: MEC to Induce Cytokine IFN-alpha.
[3] abbreviates: multiplex bead assay, read-out: MEC to Induce Cytokine TNF-alpha.

Counter-ions that a name gives are not always drawn. Like-named read-outs stand apart in the source and are kept apart here. Bounds are passed on as bounds.

On to `Cc1nc2c(N)nc3ccccc3c2n1CCCCNC(=N)N` (as salt: hydrochloride) [Example 1, 1-[4-(4-amino-2-methyl-imidazo[4,5-c]quinolin-1-yl)butyl]guanidine dihydrochloride], for which the melting point (commonly the temperature, or range, at which the solid turns liquid) was 234 to 244 °C.
For the compound `CCCc1nc2c(N)nc3ccccc3c2n1CCCCNC(=N)N` (as salt: hydrochloride) [Example 3, 1-[4-(4-amino-2-propyl-imidazo[4,5-c]quinolin-1-yl)butyl]guanidine hydrochloride], the melting point is 156 to 158 °C.
On the same count and under the same terms, in the case of `CCCCc1nc2c(N)nc3ccccc3c2n1CCCCNC(=N)N` (as salt: hydrochloride) [Example 4, 1-[4-(4-amino-2-butyl-imidazo[4,5-c]quinolin-1-yl)butyl]guanidine hydrochloride] it was 237 to 238 °C; in that of `COCCc1nc2c(N)nc3ccccc3c2n1CCOCCNC(=N)N` (as salt: hydrochloride) [Example 6, 1-[2-[2-[4-amino-2-(2-methoxyethyl)imidazo[4,5-c]quinolin-1-yl]ethoxy]ethyl]guanidine dihydrochloride], 188 to 192 °C.
Still for that read-out and setting: in the case of `CCCCCc1nc2c(N)nc3c(c2n1CCCCNC(=N)N)CCCC3` (as salt: hydrochloride) [Example 7, 1-[4-(4-amino-2-pentyl-6,7,8,9-tetrahydroimidazo[4,5-c]quinolin-1-yl)butyl]guanidine hydrochloride] it was 178 to 180 °C.
Regarding `COCCc1nc2c(N)nc3ccccc3c2n1CC(C)(C)CNC(=N)N` (as salt: hydrochloride) [Example 8, 1-[3-[4-amino-2-(2-methoxyethyl)imidazo[4,5-c]quinolin-1-yl]-2,2-dimethyl-propyl]guanidine hydrochloride], the melting point lay in the range of 246 to 250 °C.
With `Cc1nc2c(N)nc3ccccc3c2n1CCCCNC(=N)N` [Example 1, 1-[4-(4-amino-2-methyl-imidazo[4,5-c]quinolin-1-yl)butyl]guanidine dihydrochloride], the minimal effective concentration is 1 µM in data set [1] (setting [2]) and 0.001 µM in data set [1] (setting [3]).
For `CCc1nc2c(N)nc3ccccc3c2n1CCCCNC(=N)N` [Example 2, 1-[4-(4-amino-2-ethyl-imidazo[4,5-c]quinolin-1-yl)butyl]guanidine hydrochloride], the minimal effective concentration in data set [1] (setting [2]) and in data set [1] (setting [3]) was 0.1 µM each time. Further, in data set [1] (multiplex bead assay), the “MEC to Induce Cytokine IP-10” value stood at 0.1 µM.
With `CCCc1nc2c(N)nc3ccccc3c2n1CCCCNC(=N)N` [Example 3, 1-[4-(4-amino-2-propyl-imidazo[4,5-c]quinolin-1-yl)butyl]guanidine hydrochloride], the minimal effective concentration in data set [1] (setting [2]) and in data set [1] (setting [3]) was 0.1 µM in each case. Further, in data set [1] (multiplex bead assay), the “MEC to Induce Cytokine IFN-gamma” value was more than 10 µM.
Consider `CCCCc1nc2c(N)nc3ccccc3c2n1CCCCNC(=N)N` [Example 4, 1-[4-(4-amino-2-butyl-imidazo[4,5-c]quinolin-1-yl)butyl]guanidine hydrochloride], for which, in data set [1] (setting [2]), the minimal effective concentration came out at 0.01 µM. In addition, in data set [1] (multiplex bead assay), the “MEC to Induce Cytokine IFN-gamma” value is 0.1 µM and the “MEC to Induce Cytokine IP-10” value amounted to 0.01 µM. Besides, in data set [1] (setting [3]), the minimal effective concentration came out at 0.01 µM.
For `CCCCc1nc2c(N)nc3ccccc3c2n1CCOCCNC(=N)N` [Example 5, 1-[2-[2-(4-amino-2-butyl-imidazo[4,5-c]quinolin-1-yl)ethoxy]ethyl]guanidine dihydrochloride], the minimal effective concentration in data set [1] (setting [2]) is 0.01 µM; in data set [1] (setting [3]), 0.001 µM. In data set [1] (multiplex bead assay), the “MEC to Induce Cytokine IFN-gamma” value came to 0.01 µM. Further, the “MEC to Induce Cytokine IP-10” value in data set [1] (multiplex bead assay) was determined as 0.001 µM.
In the case of `COCCc1nc2c(N)nc3ccccc3c2n1CCOCCNC(=N)N` [Example 6, 1-[2-[2-[4-amino-2-(2-methoxyethyl)imidazo[4,5-c]quinolin-1-yl]ethoxy]ethyl]guanidine dihydrochloride], the minimal effective concentration in data set [1] (setting [2]) and in data set [1] (setting [3]) was 0.01 µM in each case. Besides, the “MEC to Induce Cytokine IFN-gamma” value in data set [1] (multiplex bead assay) worked out at 0.01 µM. Further, the “MEC to Induce Cytokine IP-10” value in data set [1] (multiplex bead assay) was 0.01 µM.
With `CCCCCc1nc2c(N)nc3c(c2n1CCCCNC(=N)N)CCCC3` [Example 7, 1-[4-(4-amino-2-pentyl-6,7,8,9-tetrahydroimidazo[4,5-c]quinolin-1-yl)butyl]guanidine hydrochloride], the minimal effective concentration in data set [1] (setting [2]) was found to be 1 µM. Further, in data set [1] (multiplex bead assay), the “MEC to Induce Cytokine IFN-gamma” value is more than 10 µM and the “MEC to Induce Cytokine IP-10” value came out at 0.1 µM. The minimal effective concentration in data set [1] (setting [3]) was 1 µM.
For the compound `COCCc1nc2c(N)nc3ccccc3c2n1CC(C)(C)CNC(=N)N` [Example 8, 1-[3-[4-amino-2-(2-methoxyethyl)imidazo[4,5-c]quinolin-1-yl]-2,2-dimethyl-propyl]guanidine hydrochloride], in data set [1] (setting [2]), the minimal effective concentration is 0.1 µM. In data set [1] (multiplex bead assay), the “MEC to Induce Cytokine IFN-gamma” value worked out at 0.1 µM and the “MEC to Induce Cytokine IP-10” value was 0.01 µM. Besides, in data set [1] (setting [3]), the minimal effective concentration stood at 0.1 µM.
For the compound `CC(C)Cn1cnc2c(N)nc3ccccc3c21` [imiquimod, reference compound], the minimal effective concentration in data set [1] (setting [2]) and in data set [1] (setting [3]) was 10 µM in each case. Further, the “MEC to Induce Cytokine IFN-gamma” value in data set [1] (multiplex bead assay) amounted to 10 µM. The “MEC to Induce Cytokine IP-10” value in data set [1] (multiplex bead assay) amounted to 10 µM.
